# Measurements reported in patent US11000528B2, “Compound useful for the treatment of degenerative and inflammatory diseases” (Galapagos NV, priority 2009, dated 2021).
# pEC50: −log10 of the molar value.
# What was measured:
# [1] = Microsomal stability, rat liver microsomes; assay type: in vitro ADME; conditions: 3 μM compound
# Procedure: (§1) A 10 mM stock solution of compound in DMSO was diluted 1000 fold in a 182 mM phosphate buffer pH7.4 in a 96 deep well plate (Greiner, Cat no. 780285) and pre-incubated at 37° C.
# (§2) 40 μL of deionised water was added to a well of a polypropylene Matrix 2D barcode labelled storage tube (Thermo Scientific) and pre-incubated at 37° C.
# (§3) A Glucose-6-phophate-dehydrogenase (G6PDH) working stock solution was prepared in 182 mM phosphate buffer pH7.4 and placed on ice before use. A co-factor containing MgCl2, glucose-6-phosphate and NADP+ was prepared in deionised water and placed on ice before use.
# (§4) A final working solution containing liver microsomes (Xenotech) of a species of interest (human, mouse, rat, dog), previously described G6PDH and co-factors was prepared and this mix was incubated for no longer than 20 minutes at room temperature.
# (§5) 30 μL of the pre-heated compound dilution was added to 40 μL of pre-heated water in the Matrix tubes and 30 μL of the microsomal mix was added. Final reaction concentrations were 3 μM compound, 1 mg microsomes, 0.4 U/mL GDPDH, 3.3 mM MgCl2, 3.3 mM glucose-6-phosphate and 1.3 mM NADP+.
# (§6) To measure percentage remaining of compound at time zero MeOH or ACN was added (1:1) to the well before adding the microsomal mix. The plates were sealed with Matrix Sepra Seals™ (Matrix, Cat. No. 4464) and shaken for a few seconds ensure complete mixing of all components.
# (§7) The samples which were not stopped are incubated at 37° C., 300 rpm and after 1 hr of incubation the reaction was stopped with MeOH or ACN (1:1).
# (§8) After stopping the reaction the samples were mixed and placed on ice for 30 min to precipitate the proteins. The plates were then centrifuged 30 min at 1200 rcf at 4° C. and the supernatant was transferred to a 96 v-bottom PP plate (Greiner, 651201) for analysis on LCMS.
# (§9) These plates were sealed with sealing mats (MA96RD-04S) of www.kinesis.co.uk and samples were measured at room temperature on LCMS (ZQ 1525 from Waters) under optimized conditions using Quanoptimize to determine the appropriate mass of the parent molecule.
# (§10) The samples were analyzed on LCMS with a flow rate of 1 mL/min. Solvent A was 15 mM ammonia and solvent B was methanol or acetonitrile, depending on the stop solution used. The samples were run under positive ion spray on an XBridge C18 […] (2.1×30 mm) column, from Waters.
# (§11) Peak area from the parent compound at time 0 was considered to be 100% remaining. The percentage remaining after 1 hr incubation was calculated from time 0 and was calculated as the percentage remaining. The solubility of the compound in the final test concentration in buffer is inspected by microscope and results are reported.
# (§12) The data on microsomal stability are expressed as a percentage of the total amount of compound remaining after 60 min.
# [2] = tested on: Circulating TNF alpha levels; assay: Septic shock model (LPS-induced TNF alpha release); assay type: in vivo, mouse; conditions: BALB/cJ mice, 30 mg/kg po, LPS 15 μg/kg ip
# Procedure: Injection of lipopolysaccharide (LPS) induces a rapid release of soluble tumour necrosis factor (TNF-alpha) into the periphery. This model was used to analyse prospective blockers of TNF release in vivo. Six BALB/cJ female mice (20 g) per group were treated at the intended dosing once, po. Thirty minutes later, LPS (15 μg/kg; E. coli serotype 0111:B4) was injected ip. Ninety minutes later, mice were euthanized and blood was collected. Circulating TNF alpha levels were determined using commercially available ELISA kits. Dexamethasone ([…]) was used as a reference anti-inflammatory compound. Selected compounds were tested at one or multiple doses, e.g. 3 and/or 10 and/or 30 mg/kg, po.
# [3] = Microsomal stability, human liver microsomes; assay type: in vitro ADME; conditions: 3 μM compound
# Procedure: as §1, §2, §3, §4, §5, §6, §7, §8, §9, §10, §11, §12
# rat CIA model = assay: Rat collagen induced arthritis (CIA) model; assay type: in vivo; design: key to Clinical Assessment End point score / Clinical Assessment AUC Score / Paw swelling / Larsen' Score: a “*” indicates that there was a statistically significant improvement in the score, p 0.05 vs. untreated control; conditions: for Clinical Assessment AUC Score / Clinical Assessment End point score: normalized score
# Procedure: Dark Agouti rats (male, 7-8 weeks old) were obtained from Harlan Laboratories (Maison-Alfort, France). Rats were kept on a 12 hr light/dark cycle (0700-1900). Temperature was maintained at 22° C., and food and water were provided ad libitum.
# One day before the experiment, CII solution (2 mg/mL) was prepared with 0.05 M acetic acid and stored at 4° C. Just before the immunization, equal volumes of adjuvant (IFA) and CII were mixed by a homogenizer in a pre-cooled glass bottle in an ice water bath. Extra adjuvant and prolonged homogenization may be required if an emulsion is not formed. 0.2 mL of the emulsion was injected intradermally at the base of the tail of each rat on day 1, a second booster intradermal injection (CII solution at 2 mg/mL in CFA 0.1 mL saline) was performed on day 9. This immunization method was modified from published methods (Sims et al, 2004; Jou et al., 2005).
# The therapeutic effects of the compounds were tested in the rat CIA model. Rats were randomly divided into equal groups and each group contained 10 rats. All rats were immunized on day 1 and boosted on day 9. Therapeutic dosing lasted from day 16 to day 30. The negative control group was treated with vehicle (MC 0.5%) and the positive control group with Enbrcl (10 mg/kg, 3× week., s.c.). A compound of interest was typically tested at 3 doses, e.g. 3, 10, 30 mg/kg, p.o.
# Arthritis is scored according to the method of Khachigian 2006, Lin et al 2007 and Nishida et al. 2004). The swelling of each of the four paws is ranked with the arthritic score as follows: 0-no symptoms; 1-mild, but definite redness and swelling of one type of joint such as the ankle or wrist, or apparent redness and swelling limited to individual digits, regardless of the number of affected digits; 2-moderate redness and swelling of two or more types of joints; 3-severe redness and swelling of the entire paw including digits; 4-maximally inflamed limb with involvement of multiple joints (maximum cumulative clinical arthritis score 16 per animal) (Nishida et al., 2004).
# To permit the meta-analysis of multiple studies the clinical score values were normalised as follows:
# AUC of clinical score (AUC score): The area under the curve (AUC) from day 1 to day 14 was calculated for each individual rat. The AUC of each animal was divided by the average AUC obtained for the vehicle in the study from which the data on that animal was obtained and multiplied by 100 (i.e. the AUC was expressed as a percentage of the average vehicle AUC per study).
# Clinical score increase from day 1 to day 14 (End point score): The clinical score difference for each animal was divided by the average clinical score difference obtained for the vehicle in the study from which the data on that animal was obtained and multiplied by 100 (i.e. the difference was expressed as a percentage of the average clinical score difference for the vehicle per study).
# X-ray photos were taken of the hind paws of each individual animal. A random blind identity number was assigned to each of the photos, and the severity of bone erosion was ranked by two independent scorers with the radiological Larsen's score system as follows: 0—normal with intact bony outlines and normal joint space; 1—slight abnormality with any one or two of the exterior metatarsal bones showing slight bone erosion; 2—definite early abnormality with any three to five of the exterior metatarsal bones showing bone erosion; 3—medium destructive abnormality with all the exterior metatarsal bones as well as any one or two of the interior metatarsal bones showing definite bone erosions; 4—severe destructive abnormality with all the metatarsal bones showing definite bone erosion and at least one of the inner metatarsal joints completely eroded leaving some bony joint outlines partly preserved; 5—mutilating abnormality without bony outlines. This scoring system is a modification from Salvemini et al., 2001; Bush et al., 2002; Sims et al., 2004; Jou et al., 2005.
# [4] = Pharmacokinetic study in rodents (Sprague-Dawley rats); assay type: in vivo; conditions: male, plasma; Sprague-Dawley rat, IV 1 mg/kg
# Procedure: Sprague-Dawley rats (male, 5-6 weeks old) were obtained from Janvier (France). Rats were acclimatized for at least 7 days before treatment and were kept on a 12 hr light/dark cycle (0700-1900). Temperature was maintained at approximately 22° C., and food and water were provided ad libitum. […] After the surgery, rats were housed individually. Rats were deprived of food for at least 16 hours before oral dosing and 6 hours after. Water was provided ad libitum.
# Test compounds were orally dosed as a single esophageal gavage at 5 mg/kg under a dosing volume of 5 ml/kg and intravenously dosed as a bolus via the caudal vein at 1 mg/kg under a dosing volume of 5 mL/kg. Each group consisted of 3 rats. […] For compound 11, blood samples were collected at the retro-orbital sinus with lithium heparin as anti-coagulant at the following time points 0.25, 1, 3 and 6 hrs (oral route). Whole blood samples were centrifuged at 5000 rpm for 10 min and the resulting plasma samples were stored at −20° C. pending analysis.
# Plasma concentrations of each test compound were determined by an LC-MS/MS method in which the mass spectrometer was operated in positive electrospray mode.
# Pharmacokinetic parameters were calculated using Winnonlin® (Pharsight®, United States).
# [5] = tested on: MMP13 levels in human chondrosarcoma cell line SW1353; assay: cells; conditions: SW1353, 48 h
# Procedure: The cells were seeded in 96 well plates at 15,000 cells/well in a volume of 120 μL DMEM (Invitrogen) containing 10% (v/v) FBS and 1% penicillin/streptomycin (InVitrogen) incubated at 37° C. 5% CO2. Cells were preincubated with 15 μL of compound in M199 medium with 2% DMSO 1 hr before triggering with 15 μL OSM and IL-1β to reach 25 ng/mL OSM and 1 ng/mL IL-1β, and MMP13 levels were measured in conditioned medium 48 hours after triggering. MMP13 activity was measured using an antibody capture activity assay. For this purpose, 384 well plates (NUNC, 460518, MaxiSorb black) were coated with 35 μL of a 1.5 μg/mL anti-human MMP13 antibody (R&D Systems, MAB511) solution for 24 hrs at 4° C. After washing the wells 2 times with PBS+0.05% Tween, the remaining binding sites were blocked with 100 μL 5% non-fat dry milk (Santa Cruz, sc-2325, Blotto) in PBS for 24 hr at 4° C. […] After incubation for 24 hrs at 37° C. fluorescence of the converted substrate was measured in a Perkin Elmer Wallac EnVision 2102 Multilabel Reader (wavelength excitation: 320 nm, wavelength emission: 405 nm). Percentage inhibition=((fluorescence determined in the presence of vehicle−fluorescence determined for sample with test compound present) divided by (fluorescence determined in the presence of vehicle−fluorescence determined for sample without trigger))*100.
# [6] = tested on: JAK-STAT signalling in HeLa cells; assay: JAK-STAT signalling assay (OSM-triggered pSTAT1(2)-luciferase reporter in HeLa cells); assay type: cell-based; conditions: Homo sapiens, human OSM 33 ng/mL, STAT1 luciferase reporter
# Procedure: HeLa cells were maintained in Dulbecco's Modified Eagle's Medium (DMEM) containing 10% heat inactivated fetal calf serum, 100 U/mL penicillin and 100 μg/mL streptomycin. HeLa cells were used at 70% confluence for transfection. 20,000 cells in 87 μL cell culture medium were transiently transfected with 40 ng pSTAT1(2)-luciferase reporter (Panomics), 8 ng of LacZ reporter as internal control reporter and 52 ng of pBSK using 0.32 μL Jet-PEI (Polyplus) as transfection reagent per well in 96-well plate format. After overnight incubation at 37° C., 10% CO2, transfection medium was removed.
# 40 μL of cell lysate was used to read β-galactosidase activity by adding 180 μL β-Gal solution (30 μL ONPG 4 mg/mL+150 μL β-Galactosidase buffer (0.06 M Na2HPO4, 0.04 M NaH2PO4, 1 mM MgCl2)) for 20 min.
# The positive and negative controls were used to calculate z′ and ‘percent inhibition’ (PIN) values.
# PIN values were plotted for compounds tested in dose-response and EC50 values were derived.
smiles,measurement,setting,value
"O=C(Nc1nc2cccc(-c3ccc(CN4CCS(=O)(=O)CC4)cc3)n2n1)C1CC1 [Compound 1, Cyclopropanecarboxylic acid {5-[4-(1,1-dioxo-1-thiomorpholin-4-ylmethyl)-phenyl]-[1,2,4]triazolo[1,5-a]pyridin-2-yl}-amide]","microsomal stability, percentage of compound remaining after 60 min, Rat",[1],65.6%
same,activity in septic shock model (blocking of TNF release),[2],active
same,"microsomal stability, percentage of compound remaining after 60 min, Human",[3],87.2%
same,Clinical Assessment AUC Score,rat CIA model; 0.1 mg/kg/day p.o.,*
same,Clinical Assessment End point score,rat CIA model; 0.1 mg/kg/day p.o.,*
same,Paw swelling,rat CIA model; 0.3 mg/kg/day p.o.,*
same,Clinical Assessment AUC Score,rat CIA model; 0.3 mg/kg/day p.o.,*
same,Clinical Assessment End point score,rat CIA model; 0.3 mg/kg/day p.o.,*
same,Paw swelling,rat CIA model; 1 mg/kg/day p.o.,*
same,Clinical Assessment AUC Score,rat CIA model; 1 mg/kg/day p.o.,*
same,Clinical Assessment End point score,rat CIA model; 1 mg/kg/day p.o.,*
same,Larsen' Score,rat CIA model; 3 mg/kg/day p.o.,*
same,Paw swelling,rat CIA model; 3 mg/kg/day p.o.,*
same,Clinical Assessment AUC Score,rat CIA model; 3 mg/kg/day p.o.,*
same,Clinical Assessment End point score,rat CIA model; 3 mg/kg/day p.o.,*
same,normalized clinical score values (calculated as AUC or as the difference from day 1 to day 14),rat CIA model; dose of 0.1 mg/kg,statistically significant improvements
same,paw swelling readout,rat CIA model; dose of 0.3 mg/kg,statistically significant increase
same,Larsen score,rat CIA model; dose of 3 mg/kg,statistically significant increase
same,improvement in efficacy over Compound 2 when the oral doses are compared,rat CIA model; oral doses compared,100 fold
same,C0,[4],1410 ng/mL
same,pEC50,[5],5.65
"O=C(Nc1nc2cccc(-c3ccc(CN4CCOCC4)cc3)n2n1)C1CC1 [Compound 2, N-(5-(4-(morpholinomethyl)phenyl)-[1,2,4]triazolo[1,5-a]pyridin-2-yl)cyclopropanecarboxamide]","microsomal stability, percentage of compound remaining after 60 min, Rat",[1],38%
same,"microsomal stability, percentage of compound remaining after 60 min, Human",[3],73%
same,normalized clinical score values (on day 14),rat CIA model; dose of 10 mg/kg,statistically significant improvements
same,Larsen score,rat CIA model; dose of 30 mg/kg,statistically significant increase
same,paw swelling readout,rat CIA model; dose of 30 mg/kg,statistically significant increase
same,C0,[4],863 ng/mL
"O=C(Nc1nc2cccc(-c3ccc(C(=O)N4CCS(=O)(=O)CC4)cc3)n2n1)C1CC1 [Compound 10, Cyclopropanecarboxylic acid {5-[4-(1,1-dioxo-1-thiomorpholine-4-carbonyl)-phenyl]-[1,2,4]triazolo[1,5-a]yridin-2-yl}-amide]","microsomal stability, percentage of compound remaining after 60 min, Rat",[1],89%
same,"microsomal stability, percentage of compound remaining after 60 min, Human",[3],102%
"O=C(Nc1nc2cccc(-c3ccc(CN4CCC(F)(F)CC4)cc3)n2n1)C1CC1 [Compound 11, Cyclopropanecarboxylic acid {5-[4-(4,4-difluoro-piperidin-1-ylmethyl)-phenyl]-[1,2,4]triazolo[1,5-a]pyridin-2-yl}-amide]","microsomal stability, percentage of compound remaining after 60 min, Rat",[1],26%
same,"microsomal stability, percentage of compound remaining after 60 min, Human",[3],51%
same,pEC50,[6],6.13
